Measurements: ChEMBL document CHEMBL3632547, “Discovery of 3,5-substituted 6-azaindazoles as potent pan-Pim inhibitors” (Bioorg Med Chem Lett, 2015)

Columns and labels:
[1] = molecular target: Serine/threonine-protein kinase pim-2 (Homo sapiens, UniProt Q9P1W9)
[2] = molecular target: Serine/threonine-protein kinase pim-3 (Homo sapiens, UniProt Q86V86)
[3] = molecular target: Serine/threonine-protein kinase pim-1 (Homo sapiens, UniProt P11309)
[4] = Cytotoxicity against wild type interleukin-3 dependent mouse BA/F3 cells after 72 hrs by CellTiter-Glo assay; assay type: functional, cell-based; settings: BaF3, 72 h
[5] = Cytotoxicity against interleukin-3 independent mouse BA/F3 cells expressing PIM1 after 72 hrs by CellTiter-Glo assay; assay type: functional, cell-based; settings: BaF3, 72 h
BaF3 = assay: Ratio of IC50 for wild type interleukin-3 dependent mouse BA/F3 cells to IC50 for interleukin-3 independent mouse BA/F3 cells expressing PIM1; assay type: functional
[6] = Cytotoxicity against human MM1S cells after 72 hrs by CellTiter-Glo assay; assay type: functional, cell-based; settings: MM1.S
[7] = Plasma clearance in rat; assay type: ADME, organism-based
[8] = Oral bioavailability in rat; assay type: ADME, organism-based; settings: in vivo
[9] = Plasma protein binding in rat; assay type: ADME, cell-free; settings: read-out: PPB (converted)
[10] = Intrinsic clearance from rat liver microsomes; assay type: ADME; settings: read-out: CLH
[11] = Apparent permeability from apical to basolateral side in MDCK cells; assay type: ADME, cell-based, Canis lupus familiaris; settings: dog
[12] = Efflux ratio of apparent permeability from basolateral to apical over apical to basolateral side in MDCK cells; assay type: ADME, cell-based, Canis lupus familiaris; settings: dog

Sequence of Serine/threonine-protein kinase pim-1 (P11309 whole entry): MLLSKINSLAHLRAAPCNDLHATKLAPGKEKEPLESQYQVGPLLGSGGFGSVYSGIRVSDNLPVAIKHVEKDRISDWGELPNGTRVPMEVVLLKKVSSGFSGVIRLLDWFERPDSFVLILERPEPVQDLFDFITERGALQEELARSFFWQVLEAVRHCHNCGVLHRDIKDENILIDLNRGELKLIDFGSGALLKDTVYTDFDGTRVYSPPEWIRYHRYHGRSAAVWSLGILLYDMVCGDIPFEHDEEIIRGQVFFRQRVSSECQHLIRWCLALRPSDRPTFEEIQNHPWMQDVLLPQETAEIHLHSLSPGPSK
Sequence of Serine/threonine-protein kinase pim-2 (Q9P1W9 whole entry): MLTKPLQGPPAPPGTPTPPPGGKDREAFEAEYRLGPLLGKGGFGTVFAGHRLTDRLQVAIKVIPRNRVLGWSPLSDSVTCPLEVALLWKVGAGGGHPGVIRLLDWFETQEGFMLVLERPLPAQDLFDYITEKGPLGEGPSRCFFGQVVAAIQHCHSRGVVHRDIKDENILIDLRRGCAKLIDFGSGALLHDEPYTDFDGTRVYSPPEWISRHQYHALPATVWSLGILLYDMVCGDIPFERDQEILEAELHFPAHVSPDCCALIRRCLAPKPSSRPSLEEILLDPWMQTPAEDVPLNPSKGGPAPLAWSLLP

SMILES | Ki [1] [nM] | Ki [2] [nM] | Ki [3] [nM] | also measured
Cn1cc(-c2cc3c(-c4cccc(O[C@@H]5CCCNC5)n4)n[nH]c3cn2)cn1 | 6.2 | 0.16 |  | 
Cn1cc(-c2cc3c(-c4cccc(N5CCC[C@@H](N)C5)n4)n[nH]c3cn2)cn1 | 0.72 | 0.021 |  | 
Cn1cc(-c2cc3c(-c4cccc(N5CC[C@@H](N)C5)n4)n[nH]c3cn2)cn1 | 0.43 | 0.015 | 0.035 | 
Cn1cc(-c2cc3c(-c4cccc(N5CCC[C@H](N)C5)n4)n[nH]c3cn2)cn1 | 0.26 | 0.015 |  | 
Cn1cc(-c2cc3c(-c4cccc(N5CCC[C@@H](N)C5)c4)n[nH]c3cn2)cn1 | 1.25 | 0.29 |  | 
Cc1ccc(-c2n[nH]c3cnc(-c4cnn(C)c4)cc23)nc1N1CCC[C@H](N)C1 | 0.088 | 0.006 |  | 
CCn1cc(-c2cc3c(-c4cccc(N5CCNCC5)n4)n[nH]c3cn2)cn1 | 0.473 | 0.041 |  | IC50 [4]: 5400 nM; IC50 [5]: 77 nM; Ratio IC50 (BaF3): 70; IC50 [6]: 640 nM; clearance [7]: 14 mL/min/kg; bioavailability [8]: 1%; fraction unbound [9]: 0.022; CLint scaled [10]: 150 mL/min/kg; Papp A→B [11]: 0.5 ×10⁻⁶ cm/s; efflux ratio [12]: 51
c1cc(-c2n[nH]c3cnc(C4CCCO4)cc23)nc(N2CCNCC2)c1 (stereo unspecified) | 82 |  | 8.5 | 
c1cc(-c2n[nH]c3cnc(C4CCCOC4)cc23)nc(N2CCNCC2)c1 (stereo unspecified) | 26 | 1 |  | 
O=C1CN(c2cc3c(-c4cccc(N5CCNCC5)n4)n[nH]c3cn2)CCN1 | 17 | 1.4 |  | 
c1cc(-c2n[nH]c3cnc(N4CCOCC4)cc23)nc(N2CCNCC2)c1 | 14 | 4.4 |  | 
Cn1cc(-c2cc3c(-c4ccccn4)n[nH]c3cn2)cn1 | 48 | 3.7 |  | 
Cn1cc(-c2cc3c(-c4cccc(N5CCCNCC5)n4)n[nH]c3cn2)cn1 | 0.17 | 0.013 | 0.02 | 
Cn1cc(-c2cc3c(-c4cccc(C5CCNCC5)n4)n[nH]c3cn2)cn1 | 2.2 | 0.12 |  | 
CCn1cncc(-c2cc3c(-c4cccc(N5CCNCC5)n4)n[nH]c3cn2)c1=O | 0.145 | 0.07 |  | 
Cn1cc(-c2cc3c(-c4cccc(N5CCNCC5)n4)n[nH]c3cn2)cn1 | 0.58 | 0.017 |  | 
N#CCn1cc(-c2cc3c(-c4cccc(N5CCNCC5)n4)n[nH]c3cn2)cn1 | 0.127 | 0.013 |  | 
c1cc(-c2n[nH]c3cnc(-c4cnn(CC5CC5)c4)cc23)nc(N2CCNCC2)c1 | 0.253 | 0.016 |  | 
c1cc(-c2n[nH]c3cnc(-n4ccnc4)cc23)nc(N2CCNCC2)c1 | 5.4 | 0.65 |  | 
NC(=O)Cc1cc2c(-c3cccc(N4CCNCC4)n3)n[nH]c2cn1 | 1100 | 115 |  | 

SMILES | Ki [1] [nM] | Ki [2] [nM] | Ki [3] [nM] | also measured
NC(=O)Nc1cc2c(-c3cccc(N4CCNCC4)n3)n[nH]c2cn1 | 1.1 | 0.68 |  | 
CN1C(=O)CN(c2cc3c(-c4cccc(N5CCNCC5)n4)n[nH]c3cn2)C1=O | 33 | 3.3 |  | 
Fc1ccccc1-c1n[nH]c2cnc(-c3cnccc3O[C@@H]3CCCNC3)cc12 | 1.7 | 0.11 | 3.4 | 
Cc1n[nH]c2cnc(-c3cncc(N4CCC(N)CC4)n3)cc12 | 170 | 9 | 6 | 
NC1CCN(c2cncc(-c3cc4c(-c5ccccc5F)n[nH]c4cn3)n2)CC1 | 3 | 0.1 | 0.1 | 
NCCNc1cccc(-c2n[nH]c3cnc(-c4cccnc4)cc23)n1 | 3 | 0.2 | 0.3 | 
c1cncc(-c2cc3c(-c4cccc(N5CCNCC5)n4)n[nH]c3cn2)c1 | 0.5 | 0.01 | 0.04 | 
Cc1cncc(-c2cc3c(-c4cccc(N5CCNCC5)n4)n[nH]c3cn2)c1 | 0.3 | 0.037 |  | 
Cc1cncc(-c2cc3c(-c4cccc(N5CCNCC5)n4)n[nH]c3cn2)n1 | 0.049 | 0.01 |  | 
c1cncc(-c2cc3cn[nH]c3cn2)c1 | 6000 | 1800 | 1300 | 
O=C(Nc1cn[nH]c1)c1cccnc1 | 15000 | 2900 | 3300 | 
Cc1n[nH]c2cnc(-c3cccnc3)cc12 | 800 | 300 | 200 | 
Cc1c[nH]c2cnc(-c3cccnc3)cc12 | 3900 | 1500 | 800 | 
Cc1n[nH]c2cnc(-c3cn[nH]c3)cc12 | 900 | 400 |  | 
Cc1n[nH]c2ccc(-c3cn[nH]c3)cc12 | 2700 | 3100 | 3200 | 
c1ccc(-c2n[nH]c3cnc(-c4cccnc4)cc23)cc1 | 50 | 5 | 10 | 
c1ccc(-c2n[nH]c3cnc(-c4cccnc4)cc23)nc1 | 70 |  | 10 | 
Cc1n[nH]c2cnc(-c3cnccc3N3CCC[C@H](N)C3)cc12 | 8300 | 5000 |  | 
N[C@H]1CCCN(c2ccncc2-c2cc3c(-c4ccccc4F)n[nH]c3cn2)C1 | 35 | 6 |  | 
